Test results as given in ChEMBL document CHEMBL1201862, “PubChem BioAssay data set” (2004).
Calls of active or inactive are those of the source.

How the values were obtained:
[1] = target: Epstein-Barr nuclear antigen 1 (Epstein-Barr virus (strain B95-8) (HHV-4) (Human herpesvirus 4), UniProt P03211); experiment: inhibition of EBV nuclear antigen 1 DNA binding – biochemical, fluorescence polarization, 1536-well, dose response (AID 2381); parameters: species or system human gammaherpesvirus 4;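 note: fluorescence polarization of a Cy5 DNA probe bound by EBNA-1 protein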
Chain of Epstein-Barr nuclear antigen 1 (P03211 whole entry): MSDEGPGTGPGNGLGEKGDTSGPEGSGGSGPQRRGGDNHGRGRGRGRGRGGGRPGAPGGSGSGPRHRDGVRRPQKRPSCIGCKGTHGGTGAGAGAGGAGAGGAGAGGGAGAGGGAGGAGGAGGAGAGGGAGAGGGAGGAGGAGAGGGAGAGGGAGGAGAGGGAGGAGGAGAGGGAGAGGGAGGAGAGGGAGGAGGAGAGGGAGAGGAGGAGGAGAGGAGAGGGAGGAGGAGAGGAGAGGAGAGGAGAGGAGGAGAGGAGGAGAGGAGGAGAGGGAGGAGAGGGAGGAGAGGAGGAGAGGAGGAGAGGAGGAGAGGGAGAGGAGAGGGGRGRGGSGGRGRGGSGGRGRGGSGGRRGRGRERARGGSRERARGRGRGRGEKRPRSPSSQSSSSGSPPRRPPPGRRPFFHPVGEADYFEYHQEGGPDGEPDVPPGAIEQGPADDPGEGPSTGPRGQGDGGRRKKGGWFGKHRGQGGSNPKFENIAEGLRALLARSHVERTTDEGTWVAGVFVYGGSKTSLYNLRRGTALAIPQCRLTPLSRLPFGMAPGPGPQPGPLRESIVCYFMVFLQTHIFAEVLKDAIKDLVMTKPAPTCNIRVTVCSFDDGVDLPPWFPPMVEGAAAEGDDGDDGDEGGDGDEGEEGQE

[2] = target: Lytic switch protein BZLF1 (Epstein-Barr virus (strain B95-8) (HHV-4) (Human herpesvirus 4), UniProt P03206); experiment: inhibition of BZLF1 ZTA DNA binding – biochemical, fluorescence polarization, Epstein-Barr virus, 1536-well, counter-screen for EBNA-1 inhibitor project, dose response (AID 2377); parameters: species or system human gammaherpesvirus 4;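 note: fluorescence polarization of Cy5-labelled ZRE DNA probe bound by purified Zta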
Chain of Lytic switch protein BZLF1 (P03206 whole entry): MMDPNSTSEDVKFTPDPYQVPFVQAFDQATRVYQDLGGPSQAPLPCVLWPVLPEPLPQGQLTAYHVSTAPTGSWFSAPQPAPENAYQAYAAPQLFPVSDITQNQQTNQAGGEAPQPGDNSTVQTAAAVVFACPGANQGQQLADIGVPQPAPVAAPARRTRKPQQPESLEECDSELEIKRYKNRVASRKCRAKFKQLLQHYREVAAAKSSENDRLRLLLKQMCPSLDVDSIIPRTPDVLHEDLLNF

[3] = target: Neuropeptide Y receptor type 2 (Homo sapiens, UniProt P49146); experiment: IC50 for human NPY-Y2 blockade – cell-based, counter-screen for NPY-Y1 antagonist project, dose response (AID 1278); type: functional
Chain of Neuropeptide Y receptor type 2 (P49146 whole entry): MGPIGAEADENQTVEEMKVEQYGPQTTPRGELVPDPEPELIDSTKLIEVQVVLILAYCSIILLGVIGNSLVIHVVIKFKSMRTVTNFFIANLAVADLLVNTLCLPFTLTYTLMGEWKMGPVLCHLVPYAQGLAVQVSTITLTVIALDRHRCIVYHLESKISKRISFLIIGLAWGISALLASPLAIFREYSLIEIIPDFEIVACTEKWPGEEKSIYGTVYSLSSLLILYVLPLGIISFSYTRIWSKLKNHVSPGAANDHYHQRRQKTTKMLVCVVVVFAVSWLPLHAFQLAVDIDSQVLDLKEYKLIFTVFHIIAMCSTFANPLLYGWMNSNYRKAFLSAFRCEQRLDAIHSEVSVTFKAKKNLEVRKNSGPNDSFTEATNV

[4] = target: Neuropeptide Y receptor type 1 (Homo sapiens, UniProt P25929); experiment: IC50 of human NPY-Y1 blockers – cell-based, dose response (AID 1277); type: functional
Chain of Neuropeptide Y receptor type 1 (P25929 whole entry, the tested form may be a part): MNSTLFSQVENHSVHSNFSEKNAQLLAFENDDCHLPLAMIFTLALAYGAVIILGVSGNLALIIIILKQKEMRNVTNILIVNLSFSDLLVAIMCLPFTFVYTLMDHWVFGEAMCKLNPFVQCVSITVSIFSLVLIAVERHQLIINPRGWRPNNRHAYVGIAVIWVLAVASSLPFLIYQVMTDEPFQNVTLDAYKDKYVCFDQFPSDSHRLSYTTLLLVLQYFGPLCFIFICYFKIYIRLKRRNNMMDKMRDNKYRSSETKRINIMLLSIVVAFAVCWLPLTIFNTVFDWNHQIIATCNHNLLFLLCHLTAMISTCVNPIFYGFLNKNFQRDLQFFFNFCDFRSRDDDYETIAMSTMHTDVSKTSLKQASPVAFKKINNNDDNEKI

Estrogen receptor = target: T1, Estrogen receptor (Homo sapiens, UniProt P03372); experiment: ERα coactivator recruitment enhancers – biochemical, TR-FRET, ERα LBD, dose response (AID 737)
T1 sequence (P03372 whole entry): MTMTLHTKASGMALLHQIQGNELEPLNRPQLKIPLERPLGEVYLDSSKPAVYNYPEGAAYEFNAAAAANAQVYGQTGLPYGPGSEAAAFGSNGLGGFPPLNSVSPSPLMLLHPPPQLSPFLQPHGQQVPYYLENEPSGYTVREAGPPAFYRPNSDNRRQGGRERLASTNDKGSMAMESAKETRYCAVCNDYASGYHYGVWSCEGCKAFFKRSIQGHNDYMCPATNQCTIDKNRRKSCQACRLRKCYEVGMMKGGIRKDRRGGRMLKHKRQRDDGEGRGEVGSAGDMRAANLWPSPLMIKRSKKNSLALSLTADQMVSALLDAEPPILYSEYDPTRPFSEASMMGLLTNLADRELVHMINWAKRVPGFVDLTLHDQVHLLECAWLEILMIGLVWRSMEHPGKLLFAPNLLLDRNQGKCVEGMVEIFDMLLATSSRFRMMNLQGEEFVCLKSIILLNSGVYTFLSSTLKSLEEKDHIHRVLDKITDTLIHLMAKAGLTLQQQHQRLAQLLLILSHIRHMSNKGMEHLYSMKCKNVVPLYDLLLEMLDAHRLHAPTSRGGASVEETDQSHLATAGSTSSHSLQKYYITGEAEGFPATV

[5] = target: T2, Mannose-6-phosphate isomerase (Homo sapiens, UniProt P34949); experiment: MPI inhibition at elevated mannose 6-phosphate – biochemical, fluorescence intensity, high mannose 6-phosphate, primary screen (AID 1220)
T2 sequence (P34949 whole entry): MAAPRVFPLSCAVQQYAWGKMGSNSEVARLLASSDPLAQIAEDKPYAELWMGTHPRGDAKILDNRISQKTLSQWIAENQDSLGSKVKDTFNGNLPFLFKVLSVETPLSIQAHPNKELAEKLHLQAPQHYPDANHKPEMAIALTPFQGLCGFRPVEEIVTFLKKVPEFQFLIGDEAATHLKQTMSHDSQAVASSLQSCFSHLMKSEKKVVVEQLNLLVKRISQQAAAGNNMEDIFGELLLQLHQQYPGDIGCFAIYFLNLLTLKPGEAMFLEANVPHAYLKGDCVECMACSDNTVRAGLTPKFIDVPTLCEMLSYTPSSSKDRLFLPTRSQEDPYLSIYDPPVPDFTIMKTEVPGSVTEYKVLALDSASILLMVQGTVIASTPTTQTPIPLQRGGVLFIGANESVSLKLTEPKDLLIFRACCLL

[6] = target: FAD-linked sulfhydryl oxidase ALR (Homo sapiens, UniProt P55789); experiment: ALR-catalysed DTT oxidation blockers – biochemical, H2O2 detection, luminescence, cherry-pick, dose response (AID 493248)
Chain of FAD-linked sulfhydryl oxidase ALR (P55789 whole entry): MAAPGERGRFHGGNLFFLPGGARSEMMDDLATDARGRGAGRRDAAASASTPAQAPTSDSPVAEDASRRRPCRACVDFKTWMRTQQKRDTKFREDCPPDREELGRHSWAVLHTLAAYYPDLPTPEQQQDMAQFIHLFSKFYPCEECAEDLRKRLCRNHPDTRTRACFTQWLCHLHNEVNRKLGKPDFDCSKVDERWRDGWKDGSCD

[7] = target: T2, Mannose-6-phosphate isomerase; experiment: MPI enzyme activity inhibition – biochemical, fluorescence intensity, coupled assay, primary screen (AID 1209)
Bcl-2-like protein 10 = Bcl-2-like protein 10 (Homo sapiens, UniProt Q9HD36); experiment: Concentration-response of Bcl-B inhibitors by biochemical FP with TR3 (AID 1243); type: functional
Chain of Bcl-2-like protein 10 (Q9HD36 whole entry): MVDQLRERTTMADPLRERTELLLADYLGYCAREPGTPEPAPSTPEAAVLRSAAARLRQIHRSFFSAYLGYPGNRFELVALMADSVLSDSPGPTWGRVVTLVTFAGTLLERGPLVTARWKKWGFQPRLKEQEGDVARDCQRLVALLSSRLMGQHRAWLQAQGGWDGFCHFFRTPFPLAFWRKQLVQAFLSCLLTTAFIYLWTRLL

NADPH oxidase 1 = NADPH oxidase 1 (Homo sapiens, UniProt Q9Y5S8); type: functional, cell-based;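 note: Cell-based assay with luminescence read-out, IC50 derived from inhibitor dose-response curves; intracellular ROS from endogenous NOX1 in intact HT29 colon cancer cells; potency of inhibitors that lower the ROS luminescence signal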
Chain of NADPH oxidase 1 (Q9Y5S8 whole entry): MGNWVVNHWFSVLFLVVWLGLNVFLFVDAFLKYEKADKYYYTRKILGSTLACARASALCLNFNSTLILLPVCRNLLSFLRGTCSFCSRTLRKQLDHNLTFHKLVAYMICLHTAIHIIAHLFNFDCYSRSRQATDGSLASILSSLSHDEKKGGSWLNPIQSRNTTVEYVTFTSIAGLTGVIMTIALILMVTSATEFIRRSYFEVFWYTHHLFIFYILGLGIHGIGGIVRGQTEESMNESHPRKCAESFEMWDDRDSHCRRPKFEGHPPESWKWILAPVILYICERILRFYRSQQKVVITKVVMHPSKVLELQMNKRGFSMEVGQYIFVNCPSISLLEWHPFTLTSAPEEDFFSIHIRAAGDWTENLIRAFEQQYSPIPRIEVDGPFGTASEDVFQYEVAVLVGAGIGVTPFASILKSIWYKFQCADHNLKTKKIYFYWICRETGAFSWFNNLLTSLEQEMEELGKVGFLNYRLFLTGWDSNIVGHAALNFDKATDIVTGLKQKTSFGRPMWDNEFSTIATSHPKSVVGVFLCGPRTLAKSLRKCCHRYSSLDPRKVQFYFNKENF

## Cc1cc(C(=O)OCC(=O)c2c(N)n(C)c(=O)n(C)c2=O)c(C)n1-c1ccccc1
[1]
  IC50: 13.1 µM (not active)
[2]
  IC50: > 111 µM (not active)

## Cc1ccc(COC(=O)c2nn(-c3ccccc3)nc2N)cc1
[3]
  IC50: 10.6 µM (not active)
[4]
  IC50: 12 µM (not active)

## CCOc1ccccc1-c1nc(-c2ccc(NC(=O)c3ccc(Br)o3)cc2)no1
Estrogen receptor
  EC50: 12.7 µM (active)

## Cn1cnnc1SCc1ccc(C(=O)N/N=C(\CCC(=O)O)c2ccc(C(C)(C)C)cc2)cc1
[5]
  IC50: > 50 µM (not active)
[6]
  AC50: 0.755 µM (active)
[7]
  IC50: > 50 µM (not active)

## Nc1ccc(S(=O)(=O)O)c2cccc(O)c12
Bcl-2-like protein 10
  EC50: 1.05 µM (active)

## COc1cc(-c2nc(-c3ccccc3)c(-c3ccccc3)[nH]2)cc(OC)c1O
NADPH oxidase 1
  IC50: 0.517 µM (active)
